According to ChEMBL document CHEMBL1155187, “Amplification of the inhibitory activity of miglitol by monofluorination” (Bioorg Med Chem Lett, 2009):

Biological target: Oligo-1,6-glucosidase IMA1 (Saccharomyces cerevisiae S288c, UniProt P53051)
Assay: Inhibition of baker's yeast alpha-glucosidase by 4-nitrophenolate-based assay

Chain of Oligo-1,6-glucosidase IMA1 (P53051 whole entry): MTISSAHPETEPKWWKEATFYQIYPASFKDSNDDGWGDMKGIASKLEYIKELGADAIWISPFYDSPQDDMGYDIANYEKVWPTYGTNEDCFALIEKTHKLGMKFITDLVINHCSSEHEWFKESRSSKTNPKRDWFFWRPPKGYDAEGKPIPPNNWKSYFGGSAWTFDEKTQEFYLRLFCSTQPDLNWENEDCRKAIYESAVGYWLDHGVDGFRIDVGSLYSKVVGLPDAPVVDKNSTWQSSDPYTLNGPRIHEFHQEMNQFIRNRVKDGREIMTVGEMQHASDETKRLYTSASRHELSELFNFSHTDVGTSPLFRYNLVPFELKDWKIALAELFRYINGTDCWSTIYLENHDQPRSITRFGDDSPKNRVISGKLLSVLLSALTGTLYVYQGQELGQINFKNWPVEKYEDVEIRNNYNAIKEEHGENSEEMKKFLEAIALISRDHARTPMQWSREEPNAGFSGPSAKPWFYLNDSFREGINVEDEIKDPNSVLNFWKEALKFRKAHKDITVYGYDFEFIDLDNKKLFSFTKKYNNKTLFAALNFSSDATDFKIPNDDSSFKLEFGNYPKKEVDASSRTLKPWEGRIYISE

`OCCN1C[C@@H](F)[C@@H](O)[C@H](O)[C@H]1CO` gave an IC50 of 2.1 mM.

Compound `OCCN1C[C@H](O)[C@@H](O)[C@H](O)[C@H]1CO` [MIGLITOL] has an IC50 of 9.9 mM.
